Results from PubChem BioAssay (NCI).
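Five compound concentrations were applied to cells in 96-well plates for 48 hours; endpoints were derived by simple linear interpolation of the resulting dose-response curve. TGI is the concentration that stops growth completely.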

Experiments:
Assay in all cases: inhibition of tumour cell growth, NCI panel, 48 h
A498 renal = tested on: A498 renal
NCI-H23 lung = tested on: NCI-H23 lung
CCRF-CEM leukemia = tested on: CCRF-CEM leukemia
KM20L2 colon = tested on: KM20L2 colon
SN12C renal = tested on: SN12C renal
SNB-75 CNS = tested on: SNB-75 CNS
UO-31 renal = tested on: UO-31 renal
NCI/ADR-RES ovarian = tested on: NCI/ADR-RES ovarian
MDA-N = tested on: MDA-N
UACC-62 melanoma = tested on: UACC-62 melanoma
SK-MEL-5 melanoma = tested on: SK-MEL-5 melanoma
DLD-1 colon = tested on: DLD-1 colon
HT29 colon = tested on: HT29 colon
ACHN renal = tested on: ACHN renal
OVCAR-5 ovarian = tested on: OVCAR-5 ovarian
NCI-H522 lung = tested on: NCI-H522 lung
HS 578T breast = tested on: HS 578T breast
HCT-116 colon = tested on: HCT-116 colon
OVCAR-8 ovarian = tested on: OVCAR-8 ovarian
LOX IMVI melanoma = tested on: LOX IMVI melanoma
PC-3 prostate = tested on: PC-3 prostate
UACC-257 melanoma = tested on: UACC-257 melanoma
COLO 205 colon = tested on: COLO 205 colon
MDA-MB-231 breast = tested on: MDA-MB-231 breast
HOP-18 NSCLC = tested on: HOP-18 NSCLC
OVCAR-4 ovarian = tested on: OVCAR-4 ovarian
HOP-62 NSCLC = tested on: HOP-62 NSCLC
MCF7 breast = tested on: MCF7 breast
IGROV1 ovarian = tested on: IGROV1 ovarian
DMS 114 small cell lung = tested on: DMS 114 small cell lung
BT-549 breast = tested on: BT-549 breast
786-0 renal = tested on: 786-0 renal
RPMI-8226 leukemia = tested on: RPMI-8226 leukemia
SK-OV-3 ovarian = tested on: SK-OV-3 ovarian
A549 NSCLC = tested on: A549 NSCLC
K-562 leukemia = tested on: K-562 leukemia
RXF 393 renal = tested on: RXF 393 renal
SF-539 CNS = tested on: SF-539 CNS
HOP-92 NSCLC = tested on: HOP-92 NSCLC
TK-10 renal = tested on: TK-10 renal
MDA-MB-435 = tested on: MDA-MB-435
EKVX NSCLC = tested on: EKVX NSCLC
CAKI-1 renal = tested on: CAKI-1 renal
M14 melanoma = tested on: M14 melanoma
SR leukemia = tested on: SR leukemia
SK-MEL-28 melanoma = tested on: SK-MEL-28 melanoma
SNB-78 CNS = tested on: SNB-78 CNS
SF-295 CNS = tested on: SF-295 CNS
NCI-H460 lung = tested on: NCI-H460 lung
SK-MEL-2 melanoma = tested on: SK-MEL-2 melanoma
SW-620 colon = tested on: SW-620 colon
KM12 colon = tested on: KM12 colon
HL-60(TB) leukemia = tested on: HL-60(TB) leukemia
T-47D breast = tested on: T-47D breast
HCT-15 colon = tested on: HCT-15 colon
MALME-3M melanoma = tested on: MALME-3M melanoma
SNB-19 CNS = tested on: SNB-19 CNS
XF 498 CNS = tested on: XF 498 CNS
NCI-H226 lung = tested on: NCI-H226 lung
OVCAR-3 ovarian = tested on: OVCAR-3 ovarian
U251 CNS = tested on: U251 CNS
DU-145 prostate = tested on: DU-145 prostate
LXFL 529 NSCLC = tested on: LXFL 529 NSCLC
M19-MEL melanoma = tested on: M19-MEL melanoma
HCC-2998 colon = tested on: HCC-2998 colon
MOLT-4 leukemia = tested on: MOLT-4 leukemia
SF-268 CNS = tested on: SF-268 CNS
DMS 273 small cell lung = tested on: DMS 273 small cell lung

O=C(CNc1ccc2c(=S)c3ccccc3[nH]c2c1)Nc1ccccc1-c1ccccc1NC(=O)CNc1ccc2c(=S)c3ccccc3[nH]c2c1
TGI (A498 renal): 55.6 µM | TGI (NCI-H23 lung): 32.3 µM | TGI (CCRF-CEM leukemia): 22.8 µM | TGI (KM20L2 colon): 47.4 µM | TGI (SN12C renal): 53.7 µM | TGI (SNB-75 CNS): 71.9 µM | TGI (UO-31 renal): 31.4 µM | TGI (NCI/ADR-RES ovarian): > 63 µM | TGI (MDA-N): > 51.3 µM | TGI (UACC-62 melanoma): 44.3 µM | TGI (SK-MEL-5 melanoma): 35.3 µM | TGI (DLD-1 colon): 23.9 µM | TGI (HT29 colon): 48.4 µM | TGI (ACHN renal): 28.5 µM | TGI (OVCAR-5 ovarian): 53.5 µM | TGI (NCI-H522 lung): 24.1 µM | TGI (HS 578T breast): > 77.7 µM | TGI (HCT-116 colon): 43.3 µM | TGI (OVCAR-8 ovarian): 55.7 µM | TGI (LOX IMVI melanoma): 55.6 µM | TGI (PC-3 prostate): > 49.8 µM | TGI (UACC-257 melanoma): 45.3 µM | TGI (COLO 205 colon): 35.8 µM | TGI (MDA-MB-231 breast): > 51.7 µM | TGI (HOP-18 NSCLC): 29.9 µM | TGI (OVCAR-4 ovarian): 45.2 µM | TGI (HOP-62 NSCLC): 48.4 µM | TGI (MCF7 breast): > 52.7 µM | TGI (IGROV1 ovarian): 61 µM | TGI (DMS 114 small cell lung): 36.6 µM | TGI (BT-549 breast): 56.7 µM | TGI (786-0 renal): 32.9 µM | TGI (RPMI-8226 leukemia): 49.9 µM | TGI (SK-OV-3 ovarian): 48.5 µM | TGI (A549 NSCLC): 55.5 µM | TGI (K-562 leukemia): > 53.6 µM | TGI (RXF 393 renal): 56.6 µM | TGI (SF-539 CNS): 52 µM | TGI (HOP-92 NSCLC): 51.2 µM | TGI (TK-10 renal): 43.9 µM | TGI (MDA-MB-435): > 52 µM | TGI (EKVX NSCLC): 65.6 µM | TGI (CAKI-1 renal): 75.6 µM | TGI (M14 melanoma): 41.4 µM | TGI (SR leukemia): 41.1 µM | TGI (SK-MEL-28 melanoma): 41.2 µM | TGI (SNB-78 CNS): 82.9 µM | TGI (SF-295 CNS): 50.8 µM | TGI (NCI-H460 lung): 36.9 µM | TGI (SK-MEL-2 melanoma): 34.4 µM | TGI (SW-620 colon): 39.5 µM | TGI (KM12 colon): 42.7 µM | TGI (HL-60(TB) leukemia): 13.4 µM | TGI (T-47D breast): > 50.1 µM | TGI (HCT-15 colon): 49.5 µM | TGI (MALME-3M melanoma): 31.7 µM | TGI (SNB-19 CNS): 41 µM | TGI (XF 498 CNS): 41.1 µM | TGI (NCI-H226 lung): 54.6 µM | TGI (OVCAR-3 ovarian): 55 µM | TGI (U251 CNS): 42.3 µM | TGI (DU-145 prostate): 37.4 µM | TGI (LXFL 529 NSCLC): 24.6 µM | TGI (M19-MEL melanoma): > 55.5 µM | TGI (HCC-2998 colon): 31.5 µM | TGI (MOLT-4 leukemia): 46.7 µM | TGI (SF-268 CNS): 52.8 µM | TGI (DMS 273 small cell lung): > 76.3 µM

CN(C)c1ccc(/C=C/C(=O)O)cc1
TGI (A498 renal): > 100 µM | TGI (CCRF-CEM leukemia): > 100 µM | TGI (KM20L2 colon): > 100 µM | TGI (SN12C renal): > 100 µM | TGI (SNB-75 CNS): > 100 µM | TGI (UO-31 renal): > 100 µM | TGI (UACC-62 melanoma): > 100 µM | TGI (SK-MEL-5 melanoma): > 100 µM | TGI (DLD-1 colon): > 100 µM | TGI (HT29 colon): > 100 µM | TGI (ACHN renal): > 100 µM | TGI (OVCAR-5 ovarian): > 100 µM | TGI (NCI-H522 lung): > 100 µM | TGI (HCT-116 colon): > 100 µM | TGI (OVCAR-8 ovarian): > 100 µM | TGI (LOX IMVI melanoma): > 100 µM | TGI (UACC-257 melanoma): > 100 µM | TGI (COLO 205 colon): > 100 µM | TGI (HOP-18 NSCLC): > 100 µM | TGI (HOP-62 NSCLC): > 100 µM | TGI (IGROV1 ovarian): > 100 µM | TGI (DMS 114 small cell lung): > 100 µM | TGI (RPMI-8226 leukemia): > 100 µM | TGI (SK-OV-3 ovarian): > 100 µM | TGI (A549 NSCLC): > 100 µM | TGI (K-562 leukemia): > 100 µM | TGI (SF-539 CNS): > 100 µM | TGI (EKVX NSCLC): > 100 µM | TGI (CAKI-1 renal): > 100 µM | TGI (M14 melanoma): > 100 µM | TGI (SNB-78 CNS): > 100 µM | TGI (SF-295 CNS): > 100 µM | TGI (NCI-H460 lung): > 100 µM | TGI (SK-MEL-2 melanoma): > 100 µM | TGI (SW-620 colon): > 100 µM | TGI (KM12 colon): > 100 µM | TGI (HL-60(TB) leukemia): > 100 µM | TGI (HCT-15 colon): > 100 µM | TGI (MALME-3M melanoma): > 100 µM | TGI (SNB-19 CNS): > 100 µM | TGI (XF 498 CNS): > 100 µM | TGI (NCI-H226 lung): > 100 µM | TGI (OVCAR-3 ovarian): > 100 µM | TGI (LXFL 529 NSCLC): > 100 µM | TGI (M19-MEL melanoma): > 100 µM | TGI (HCC-2998 colon): > 100 µM | TGI (MOLT-4 leukemia): > 100 µM | TGI (SF-268 CNS): > 100 µM
